Structures are written as SMILES. Calls of active or inactive are those of the source. The rule behind the calls is not given here.

Data set [1] addresses YEATS domain-containing protein 4 (Homo sapiens) (UniProt O95619). Nature of the data set: Binding affinity recombinant GAS41 YEATS domain (15 to 159 residues) (unknown origin) assessed as thermal stability.
Data set [2] in a line: Downregulation of MYC gene expression in human MOLM-13 cells assessed as decrease in fold change at 5 uM for 72 hrs by RT-PCR method relative to JQ-1. It is filed as functional.
The target of data set [3] is T1, Protein ENL (Homo sapiens, UniProt Q03111).
T1 sequence (Q03111 whole entry): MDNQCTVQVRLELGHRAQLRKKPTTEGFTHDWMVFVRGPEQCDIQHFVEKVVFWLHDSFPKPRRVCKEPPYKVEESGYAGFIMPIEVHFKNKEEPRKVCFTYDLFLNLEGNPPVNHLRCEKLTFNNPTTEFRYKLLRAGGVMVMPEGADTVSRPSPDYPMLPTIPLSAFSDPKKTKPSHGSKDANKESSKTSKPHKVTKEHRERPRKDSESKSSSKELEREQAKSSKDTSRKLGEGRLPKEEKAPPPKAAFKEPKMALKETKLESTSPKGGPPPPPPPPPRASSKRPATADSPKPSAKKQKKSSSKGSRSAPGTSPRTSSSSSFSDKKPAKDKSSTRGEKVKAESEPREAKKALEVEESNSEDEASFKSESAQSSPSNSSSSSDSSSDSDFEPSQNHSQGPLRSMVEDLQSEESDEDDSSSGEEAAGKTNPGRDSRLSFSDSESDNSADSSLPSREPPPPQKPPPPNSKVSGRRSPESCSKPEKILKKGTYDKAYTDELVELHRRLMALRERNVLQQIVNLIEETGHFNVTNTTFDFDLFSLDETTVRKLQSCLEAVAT
The experiment in a line: Inhibition of C-terminal 6xHis-tagged ENL YEATS domain (1 to 148 residues) (unknown origin) expressed in Escherichia coli BL21(DE3) cells using biotin-H3K27ace as substrate incubated for 45 mins by alpha screen assay. For orientation: Bead proximity is the source of the signal in Alpha formats.

Data set [4] in a line: Downregulation of MYC mRNA level in human MOLM-13 cells at 5 uM incubated for 72 hrs by RT-PCR method relative to control. It is filed as functional.
A short description of data set [5]: Cmax in BALB/c mouse at 30 mg/kg, po measured after 0.5 to 24 hrs by LC-MS/MS assay. It is filed as ADME, organism-based. Also on record: dose 30 mg/kg, time 0.5-24 hrs, route po. The conditions noted are these: in vivo.
In data set [6] the target is T2, Protein ENL (Homo sapiens) (UniProt Q03111).
T2 sequence (whole entry): T1 sequence (Q03111 whole entry)
The conditions noted are these: dose 12.5 µM.
Description: Binding affinity to C-terminal 6xHis-tagged ENL YEATS domain (1 to 148 residues) (unknown origin) expressed in Escherichia coli BL21(DE3) cells assessed as thermal stability by measuring change in melting temperature at 12.5 uM by SYPRO dye-based thermal shift assay

The target in data set [7] is T1, Protein ENL. Nature of the data set: Binding affinity to C-terminal 6xHis-tagged ENL YEATS domain (1 to 148 residues) (unknown origin) expressed in Escherichia coli BL21(DE3) cells assessed as dissociation constant by SPR analysis. Background: In SPR one partner is held on a chip, and binding of the other changes the refractive index at the surface.
Data set [8] can be described thus: AUC (0 to t) in BALB/c mouse at 30 mg/kg, po measured after 0.5 to 24 hrs by LC-MS/MS assay. Also noted: dose 30 mg/kg, time 0.5-24 hrs, route po. The settings on record: in vivo. It counts as ADME, organism-based.
A short description of data set [9]: Cytotoxicity against HUVEC-C incubated for 72 hrs by Cell Titer-Glo luminescent assay. It counts as toxicity, cell-based. The conditions noted are these: human.
The target in data set [10] is T2, Protein ENL (Homo sapiens). The conditions noted are these: dose 50.0 µM.
Data set [11] deals with T2, Protein ENL (Homo sapiens). The conditions noted are these: dose 25.0 µM.
For the next data set, the system named is MRC5. The experiment in a line: Cytotoxicity against human MRC5 cells incubated for 72 hrs by Cell Titer-Glo luminescent assay. The settings on record: mrc5, 72 h. It is filed as toxicity, cell-based. For orientation: Cellular ATP, detected with luciferase, serves as a proxy for viable cell number.
Data set [12] concerns the target T2, Protein ENL (Homo sapiens). The settings on record: dose 111.0 nM, time 45.0 min.
A short description of data set [13]: Half life in BALB/c mouse at 30 mg/kg, po measured after 0.5 to 24 hrs by LC-MS/MS assay. It counts as ADME, organism-based. The settings on record: in vivo, time 0.5-24 hrs.
Data set [14] relates to MOLM-13. The experiment in a line: Antiproliferative activity against human MOLM-13 cells assessed as inhibition of cell growth measured after 72 hrs by Cell Titer-Glo luminescent assay. It counts as functional, cell-based. The settings on record: MOLM-13, 72 h.
The target in data set [15] is T2, Protein ENL (Homo sapiens). The settings on record: dose 6.3 µM.
Description: Binding affinity to C-terminal 6xHis-tagged ENL YEATS domain (1 to 148 residues) (unknown origin) expressed in Escherichia coli BL21(DE3) cells assessed as thermal stability by measuring change in melting temperature at 6.3 uM by SYPRO dye-based thermal shift assay
The next data set deals with MV4-11. Nature of the data set: cells. The conditions noted are these: Homo sapiens, MV4-11, 72 h.
Data set [16] can be described thus: Tmax in BALB/c mouse at 30 mg/kg, po measured after 0.5 to 24 hrs by LC-MS/MS assay. The settings on record: in vivo, time 0.5-24 hrs. It is filed as ADME, organism-based.
Data set [17] in a line: MRT (0 to infinity) in BALB/c mouse at 30 mg/kg, po measured after 0.5 to 24 hrs by LC-MS/MS assay. It counts as ADME, organism-based. The conditions noted are these: in vivo, time 0.5-24 hrs.
Data set [18] has as its target YEATS domain-containing protein 4 (Homo sapiens) (UniProt O95619). Nature of the data set: Binding affinity recombinant GAS41 YEATS domain (15 to 159 residues) (unknown origin) expressed in Escherichia coli BL21(DE3) cells by SPR assay.
The test system of data set [19] is MOLM-13. The experiment in a line: Potency index, ratio of SGC-iMLLT IC50 to test compound IC50 for antiproliferative activity against human MOLM-13 cells. It is filed as functional.
Data set [20] is described as follows: AUC (0 to infinity) in BALB/c mouse at 30 mg/kg, po measured after 0.5 to 24 hrs by LC-MS/MS assay. Also on record: time lower 0.5 hrs, dose 30 mg/kg, time upper 24 hrs, route po. It is filed as ADME, organism-based. The conditions noted are these: in vivo.
Data set [21] is described as follows: Downregulation of MYC gene expression in human MOLM-13 cells assessed as fold increase at 5 uM incubated for 72 hrs in presence of JQ-1 by RT-PCR method. It is filed as functional.
Data set [22] deals with T2, Protein ENL (Homo sapiens). The conditions noted are these: dose 333.0 nM, time 45.0 min.

YEATS domain-containing protein 4 (Homo sapiens), sequence (O95619 whole entry, the tested form may be a part): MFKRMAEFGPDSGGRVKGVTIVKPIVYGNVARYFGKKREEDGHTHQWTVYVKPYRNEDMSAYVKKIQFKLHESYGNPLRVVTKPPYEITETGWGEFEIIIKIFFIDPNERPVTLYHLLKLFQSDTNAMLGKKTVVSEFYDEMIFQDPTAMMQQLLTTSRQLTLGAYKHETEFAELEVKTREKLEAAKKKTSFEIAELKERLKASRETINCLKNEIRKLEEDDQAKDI
Description for MV4-11: Antiproliferative activity against human MV4-11 cells assessed as inhibition of cell growth measured after 72 hrs by Cell Titer-Glo luminescent assay

As to `C[C@H]1CCCN1Cc1nc2cc(NC(=O)c3ccc4c(c3)c3ccccc3c(=O)n4C)ccc2[nH]1`, the outcome in data set [1] and in data set [18] was inactive. For the same molecule, the “fold change (FC)” value in data set [2] is given as under 2.5; in [21] it was over 5. Moreover, the IC50 (usually the concentration at which inhibition is half-maximal) on Protein ENL [3] was 15.4 nM; with MOLM-13 [14] it was 8300 nM; in the data set with MV4-11, 4800 nM. Moreover, the Activity in data set [4] is 50%; in [9], “Non-Toxic”; with MRC5 it was “Non-Toxic”. Besides, the Cmax (as a rule, the maximum level reached in the sampled fluid or tissue) in data set [5] was 71.8 ng/mL. Also, the ΔTm – broadly, the change in melting temperature against a reference sample – in data set [6] was found to be 3.3 °C; in data set [10] it was 5.5 °C; in data set [11], 4.3 °C; in [15], 1.9 °C. Also, the Kd (usually a measure of binding affinity in units of concentration) at Protein ENL [7] is 17 nM. Also, in [8], the AUC(0-t) (as a rule, exposure summed from dosing to a finite time, without extrapolation to infinity) is 257 ng·h/mL. In addition, the inhibition (usually the relative decrease from the control value, in per cent) in data set [12] was found to be 99.6%; in data set [22], 100%. The half-life (usually how long it takes for the measured level to halve) in [13] is 5.2 h. Besides, the time of peak concentration (Tmax) (usually the time at which the peak concentration occurs) in [16] was 0.5 h. In data set [17], the mean residence time MRT inf (as a rule, a mean duration of stay, worked out from the concentration-time curve) was 5.5 h. For the same molecule, in the data set on MOLM-13 [19], the “Ratio IC50” value is reported as 9. Besides, in data set [20], the area under the curve AUC(0-inf) – broadly, the area under the concentration-time curve extrapolated to infinity – was 272 ng·h/mL.
